Experimental data as given in ChEMBL document CHEMBL4020788, “Synthesis, SAR and molecular docking studies of benzo[d]thiazole-hydrazones as potential antibacterial and antifungal agents” (2017).
Active and inactive are the calls of the source. The rule behind the calls is not given here.

How the values were obtained:
Type in all cases: functional
Klebsiella pneumoniae [1] = assay: Antibacterial activity against Klebsiella pneumoniae at 75 ug/ml after 24 hrs by agar well diffusion method; conditions: read-out: DIZ
Staphylococcus aureus [2] = assay: Antibacterial activity against Staphylococcus aureus at 75 ug/ml after 24 hrs by agar well diffusion method; conditions: read-out: DIZ
Klebsiella pneumoniae [3] = assay: Antibacterial activity against Klebsiella pneumoniae at 25 ug/ml after 24 hrs by agar well diffusion method; conditions: read-out: DIZ
Fusarium verticillioides [4] = assay: Antifungal activity against Fusarium moniliforme at 50 ug/ml after 48 hrs by agar well diffusion method
Staphylococcus aureus [5] = assay: Antibacterial activity against Staphylococcus aureus at 25 ug/ml after 24 hrs by agar well diffusion method; conditions: read-out: DIZ
Staphylococcus aureus [6] = assay: Antibacterial activity against Staphylococcus aureus at 50 ug/ml after 24 hrs by agar well diffusion method; conditions: read-out: DIZ
Aspergillus niger [7] = assay: Antifungal activity against Aspergillus niger at 25 ug/ml after 48 hrs by agar well diffusion method
Klebsiella pneumoniae [8] = assay: Antibacterial activity against Klebsiella pneumoniae at 100 ug/ml after 24 hrs by agar well diffusion method; conditions: read-out: DIZ
Staphylococcus aureus [9] = assay: Antibacterial activity against methicillin resistant Staphylococcus aureus MRSA090 at 100 ug/ml after 24 hrs by agar well diffusion method; conditions: MRSA090, 24 h, read-out: DIZ
Aspergillus niger [10] = assay: Antifungal activity against Aspergillus niger at 100 ug/ml after 48 hrs by agar well diffusion method
Aspergillus niger [11] = assay: Antifungal activity against Aspergillus niger at 50 ug/ml after 48 hrs by agar well diffusion method
Escherichia coli [12] = assay: Antibacterial activity against Escherichia coli at 100 ug/ml after 24 hrs by agar well diffusion method; conditions: read-out: DIZ
Bacillus subtilis [13] = assay: Antibacterial activity against Bacillus subtilis at 75 ug/ml after 24 hrs by agar well diffusion method; conditions: read-out: DIZ
Bacillus subtilis [14] = assay: Antibacterial activity against Bacillus subtilis at 100 ug/ml after 24 hrs by agar well diffusion method; conditions: read-out: DIZ
Escherichia coli [15] = assay: Antibacterial activity against Escherichia coli at 25 ug/ml after 24 hrs by agar well diffusion method; conditions: read-out: DIZ
Bacillus subtilis [16] = assay: Antibacterial activity against Bacillus subtilis at 50 ug/ml after 24 hrs by agar well diffusion method; conditions: read-out: DIZ
Klebsiella pneumoniae [17] = assay: Antibacterial activity against Klebsiella pneumoniae at 50 ug/ml after 24 hrs by agar well diffusion method; conditions: read-out: DIZ
Fusarium verticillioides [18] = assay: Antifungal activity against Fusarium moniliforme at 75 ug/ml after 48 hrs by agar well diffusion method
Staphylococcus aureus [19] = assay: Antibacterial activity against methicillin resistant Staphylococcus aureus MRSA090 at 75 ug/ml after 24 hrs by agar well diffusion method; conditions: MRSA090, 24 h, read-out: DIZ
Escherichia coli [20] = assay: Antibacterial activity against Escherichia coli at 50 ug/ml after 24 hrs by agar well diffusion method; conditions: read-out: DIZ
Staphylococcus aureus [21] = assay: Antibacterial activity against Staphylococcus aureus at 100 ug/ml after 24 hrs by agar well diffusion method; conditions: read-out: DIZ
Fusarium verticillioides [22] = assay: Antifungal activity against Fusarium moniliforme at 25 ug/ml after 48 hrs by agar well diffusion method
Aspergillus niger [23] = assay: Antifungal activity against Aspergillus niger at 75 ug/ml after 48 hrs by agar well diffusion method
Staphylococcus aureus [24] = assay: Antibacterial activity against methicillin resistant Staphylococcus aureus MRSA090 at 25 ug/ml after 24 hrs by agar well diffusion method; conditions: MRSA090, 24 h, read-out: DIZ
Bacillus subtilis [25] = assay: Antibacterial activity against Bacillus subtilis at 25 ug/ml after 24 hrs by agar well diffusion method; conditions: read-out: DIZ
Staphylococcus aureus [26] = assay: Antibacterial activity against methicillin resistant Staphylococcus aureus MRSA090 at 50 ug/ml after 24 hrs by agar well diffusion method; conditions: MRSA090, 24 h, read-out: DIZ
Fusarium oxysporum [27] = assay: Antifungal activity against Fusarium oxysporum at 100 ug/ml after 48 hrs by agar well diffusion method; conditions: read-out: DIZ
Fusarium oxysporum [28] = assay: Antifungal activity against Fusarium oxysporum at 75 ug/ml after 48 hrs by agar well diffusion method; conditions: read-out: DIZ
Fusarium oxysporum [29] = assay: Antifungal activity against Fusarium oxysporum at 25 ug/ml after 48 hrs by agar well diffusion method
Escherichia coli [30] = assay: Antibacterial activity against Escherichia coli at 75 ug/ml after 24 hrs by agar well diffusion method; conditions: read-out: DIZ
Fusarium verticillioides [31] = assay: Antifungal activity against Fusarium moniliforme at 100 ug/ml after 48 hrs by agar well diffusion method
Fusarium oxysporum [32] = assay: Antifungal activity against Fusarium oxysporum at 50 ug/ml after 48 hrs by agar well diffusion method

| Compound | zone of inhibition at 75 µg/mL (Klebsiella pneumoniae [1]) | zone of inhibition at 75 µg/mL (Staphylococcus aureus [2]) | zone of inhibition at 25 µg/mL (Klebsiella pneumoniae [3]) | zone of inhibition at 25 µg/mL (Staphylococcus aureus [5]) | zone of inhibition at 50 µg/mL (Staphylococcus aureus [6]) | zone of inhibition at 100 µg/mL (Klebsiella pneumoniae [8]) | zone of inhibition at 100 µg/mL (Staphylococcus aureus [9]) | zone of inhibition at 100 µg/mL (Escherichia coli [12]) | zone of inhibition at 75 µg/mL (Bacillus subtilis [13]) | zone of inhibition at 100 µg/mL (Bacillus subtilis [14]) | zone of inhibition at 25 µg/mL (Escherichia coli [15]) | zone of inhibition at 50 µg/mL (Bacillus subtilis [16]) | zone of inhibition at 50 µg/mL (Klebsiella pneumoniae [17]) | zone of inhibition at 75 µg/mL (Staphylococcus aureus [19]) | zone of inhibition at 50 µg/mL (Escherichia coli [20]) | zone of inhibition at 100 µg/mL (Staphylococcus aureus [21]) | zone of inhibition at 25 µg/mL (Staphylococcus aureus [24]) | zone of inhibition at 25 µg/mL (Bacillus subtilis [25]) | zone of inhibition at 50 µg/mL (Staphylococcus aureus [26]) | zone of inhibition at 100 µg/mL (Fusarium oxysporum [27]) | also measured |
| --- | --- | --- | --- | --- | --- | --- | --- | --- | --- | --- | --- | --- | --- | --- | --- | --- | --- | --- | --- | --- | --- |
| COc1cc(/C=N/Nc2nc3cccc(C)c3s2)ccc1O | 14 mm | 22 mm | 4 mm | 13 mm | 17 mm | 16 mm | 24 mm | 27 mm | 23 mm | 28 mm | 10 mm | 19 mm | 10 mm | 19 mm | 15 mm | 26 mm | 12 mm | 15 mm | 16 mm | 12 mm | diameter of the inhibition zone (DIZ) (Fusarium verticillioides [4]): inactive; diameter of the inhibition zone (DIZ) (Aspergillus niger [7]): inactive; diameter of the inhibition zone (DIZ) (Aspergillus niger [10]): inactive; diameter of the inhibition zone (DIZ) (Aspergillus niger [11]): inactive; diameter of the inhibition zone (DIZ) (Fusarium verticillioides [18]): inactive; diameter of the inhibition zone (DIZ) (Fusarium verticillioides [22]): inactive; diameter of the inhibition zone (DIZ) (Aspergillus niger [23]): inactive; zone of inhibition at 75 µg/mL (Fusarium oxysporum [28]): 8 mm; diameter of the inhibition zone (DIZ) (Fusarium oxysporum [29]): inactive; zone of inhibition at 75 µg/mL (Escherichia coli [30]): 21 mm; diameter of the inhibition zone (DIZ) (Fusarium verticillioides [31]): inactive; diameter of the inhibition zone (DIZ) (Fusarium oxysporum [32]): inactive |
| Cc1cccc2nc(N/N=C/c3ccc(F)cc3)sc12 | 16 mm | 16 mm | 6 mm | 9 mm | 12 mm | 19 mm | 19 mm | 17 mm | 12 mm | 14 mm | 5 mm | 9 mm | 11 mm | 16 mm | 9 mm | 18 mm | 8 mm | 6 mm | 12 mm | 21 mm | zone of inhibition at 50 µg/mL (Fusarium verticillioides [4]; read-out: DIZ): 18 mm; zone of inhibition at 25 µg/mL (Aspergillus niger [7]; read-out: DIZ): 10 mm; zone of inhibition at 100 µg/mL (Aspergillus niger [10]; read-out: DIZ): 22 mm; zone of inhibition at 50 µg/mL (Aspergillus niger [11]; read-out: DIZ): 13 mm; zone of inhibition at 75 µg/mL (Fusarium verticillioides [18]; read-out: DIZ): 21 mm; zone of inhibition at 25 µg/mL (Fusarium verticillioides [22]; read-out: DIZ): 14 mm; zone of inhibition at 75 µg/mL (Aspergillus niger [23]; read-out: DIZ): 18 mm; zone of inhibition at 75 µg/mL (Fusarium oxysporum [28]): 18 mm; zone of inhibition at 25 µg/mL (Fusarium oxysporum [29]; read-out: DIZ): 10 mm; zone of inhibition at 75 µg/mL (Escherichia coli [30]): 14 mm; zone of inhibition at 100 µg/mL (Fusarium verticillioides [31]; read-out: DIZ): 30 mm; zone of inhibition at 50 µg/mL (Fusarium oxysporum [32]; read-out: DIZ): 13 mm |
